Molecular target: human-sourced α-glucosidase recombinant expressed in Saccharomyces cerevisiae
Assay: α-glucosidase inhibitory assay (pNPG substrate)
Type: biochemical
Details: PBS pH 6.8, 37 °C, absorbance at 405 nm, preliminarily investigated, read-out: α-glucosidase inhibition IC50
Protocol: The α-glucosidase inhibitory activity of 1–13 was preliminarily investigated.
The sample was dissolved in sodium phosphate buffer (PBS, pH 6.8) at three concentrations. 10 μL of the sample solution, 20 μL of 2.5 mM pNPG solution (in phosphate buffer) and 20 μL of PBS were mixed in a 96-well microplate and incubated at 37 °C for 5 min. A volume of 10 μL of α-glucosidase diluted to 0.2 U/mL by 0.01 M PBS was then added to each well. After incubating at 37 °C for 15 min, the absorbance at 405 nm was recorded by a Spectra max 190 micro plate reader (Molecular Devices Inc., San Jose, CA, USA). The blank was prepared by adding phosphate buffer instead of the α-glucosidase and the positive control was acarbose. […] The inhibition (%) was calculated as [1 − (ODdrug/ODblank)] × 100%.

Row | SMILES | IC50
1 | CC(=O)O[C@@H]1C[C@@]2(C)[C@@H](CC[C@@H](C)[C@]23Cc2c(cc(CO)c(C=O)c2O)O3)C(C)(C)[C@H]1O [Compound 1, Myrothecisin A] | 500 µM
2 | CC(=O)O[C@H]1[C@H](O)C[C@@]2(C)[C@@H](CC[C@@H](C)[C@]23Cc2c(cc(CO)c(C=O)c2O)O3)C1(C)C [Compound 2, Myrothecisin B] | 660 µM
3 | CC(=O)O[C@H]1CC=C2[C@@H](CC[C@@H](C)[C@@]2(C)Cc2c(O)cc(CO)c(C=O)c2O)C1(C)C [Compound 3, Myrothecisin C] | 58 µM
4 | C[C@@H]1CC[C@@H]2C(=CC[C@H](O)C2(C)C)[C@]1(C)Cc1c(O)cc(CO)c(C=O)c1O [Compound 4, Myrothecisin D] | 200 µM
5 | COc1cc(O)c2c(=O)occ(C(O)CO)c2c1 (stereo not shown) [Compound 5, Myrothelactone A] | 320 µM
6 | COc1cc(O)c2c(=O)occ(C(=O)CO)c2c1 [Compound 7, Myrothelactone C] | 36 µM
7 | COc1cc(O)c2c(=O)oc(CO)c(CO)c2c1 [Compound 9, tubakialactone B] | 26 µM
8 | Cc1c(CO)oc(=O)c2c(O)cc(O)cc12 [Compound 10, acremonone G] | 370 µM
9 | C[C@H]1O[C@H](O[C@H]2[C@H](O)[C@@H](O)[C@@H](O[C@H]3[C@H](O)[C@@H](O)C(O)O[C@@H]3CO)O[C@@H]2CO)[C@H](O)[C@@H](O)[C@@H]1N[C@H]1C=C(CO)[C@@H](O)[C@H](O)[C@H]1O (stereo partly shown) [acarbose, reference compound] | 470 µM

System: not given
Assay: not given
Details: not given

Row | SMILES | melting point
10 | COc1cc(O)c2c(=O)occ(C(=O)CO)c2c1 [Compound 7, Myrothelactone C] | 160 to 161 °C
